Assay results taken from patent publication US20210255193A1, “LYSINE REACTIVE PROBES AND USES THEREOF” (The Scripps Research Institute, priority 2017, published 2021).

Columns and labels:
Experiment in all cases: competitive isoTOP-ABPP
Format in all cases: binding
[1] = biological target: T1, TPMT Thiopurine S-methyltransferase (Homo sapiens, UniProt P51580); design: key to isoTOP-ABPP reactivity ratio at lysine P51580_K32: R = MS1 peak area ratio, DMSO (heavy) / compound-treated (light); conditions: 50 uM, 231 sol, in vitro; for R value (DMSO/fragment) for probe 1 labeling: P51580_K32
T1 construct: isoTOP-ABPP experiments performed in cell lysates (in vitro); endogenous in cells; host or cells: soluble proteome of human cancer cell lines (MDA-MB-231; Ramos and Jurkat also prepared)
T1 sequence (P51580 1-245): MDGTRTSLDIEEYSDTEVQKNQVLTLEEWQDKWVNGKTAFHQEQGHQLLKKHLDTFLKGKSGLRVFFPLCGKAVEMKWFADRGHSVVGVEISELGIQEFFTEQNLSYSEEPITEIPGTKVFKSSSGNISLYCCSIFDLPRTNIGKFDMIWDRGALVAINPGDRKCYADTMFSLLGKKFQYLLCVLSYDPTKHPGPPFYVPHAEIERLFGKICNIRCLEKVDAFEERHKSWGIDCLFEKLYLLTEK
Protocol: (§1) In vitro covalent fragment treatment for isoTOP-ABPP. All compounds were made up as solutions in DMSO (100×) and were used at a final concentration of 50 μM for activated esters and 100 μM for guanidinylating agents. For each profiling sample, 0.5 ml of lysate was treated with 5 μl of the 100× compound stock solution or 5 μl of DMSO. Samples were treated with activated esters for
(§2) STP-alkyne labeling and click chemistry. For concentration-dependent reactivity measurements by isoTOP-ABPP, 0.5 ml proteome aliquots were treated at ambient temperature with 1 mM STP-alkyne 1 (5 μl of 100 mM stock in DMSO) and 0.1 mM STP alkyne 1 (5 μl of 10 mM stock in DMSO), respectively. For competitive isoTOP-ABPP, after in vitro fragment treatment (detailed above), the samples were labeled for 1 h at ambient temperature with 0.1 mM STP-alkyne 1 (5 μl of 10 mM stock in DMSO). Samples were conjugated by copper-mediated azide-alkyne cycloaddition (CuAAC) to either the light (1 mM STP-alkyne or fragment treated) or heavy (0.1 mM STP-alkyne or DMSO treated) TEV tags (10 μl of 5 mM stocks in DMSO, final concentration=100 μM) using tris(2-carboxyethyl)phosphine hydrochloride
(§3) R value calculation and processing. The ratios of light and heavy MS1 peaks for each unique peptide were quantified with a CIMAGE software using default parameters (3 MS1 acquisitions per peak and signal to noise threshold set to 2.5). For reactivity measurements by isoTOP-ABPP, the R value was calculated from the ratio of MS1 peak areas, comparing the 1 mM STP alkyne sample (light TEV tag) with the 0.1 mM STP alkyne sample (heavy TEV tag). For competitive isoTOP-ABPP, the R value was calculated from the ratio of MS1 peak areas, comparing the DMSO treated sample (heavy TEV tag) with the compound treated sample (light TEV tag). […] Ratios for unique peptide entries are calculated for each experiment; overlapping peptides with the same modified lysine (for example, different charge states, MudPIT chromatographic steps or tryptic termini) are grouped together and the median ratio is reported as the final ratio (R). The peptide ratios reported by CIMAGE were further filtered to ensure the removal or correction of low-quality ratios in each individual data set. The quality filters applied were the following: removal of half tryptic peptides; for ratios with high standard deviations from the median (90% of the median or above) the lowest ratio was taken instead of the median; removal of peptides with R=20 and only a single MS2 event triggered during the elution of the parent ion; manual annotation of all the peptides with ratios of 20, removing any peptides with low quality elution profiles that remained after the previous curation steps (only done for competitive isoTOP-ABPP).
(§4) Cross-data processing for fragment screening. For compound treated samples, biological replicates of the same condition were averaged, if the standard deviation was below 60% of the mean; otherwise, for lysines with at least one R value <4 for a particular compound, the lowest value of the ratio set was taken. For lysines, where all R values for a particular compound were ≥4, the average was reported. For peptides containing several possible modified lysines, the lysine with the highest number of quantification events was used for analysis and the remaining, redundant peptides were reported as alternative modification sites. Peptides included in the aggregate dataset (those used for further bioinformatics and statistical analyses) were required to have been quantified in 2 experiments for competitive isoTOP-ABPP. Lysines were categorized as liganded, if they had at least one ratio R≥4 (hit fragments). For liganded lysines with R=20 for all liganding events, lysines were required to have been quantified with R=20 in two separate experiments and were further required to have been quantified with R<20 in one additional experiment.

ADK Adenosine kinase = biological target: T2, ADK Adenosine kinase (Homo sapiens, UniProt P55263); design: key to isoTOP-ABPP reactivity ratio at lysine P55263_K88: R = MS1 peak area ratio, DMSO (heavy) / compound-treated (light); conditions: 50 uM, 231 sol, in vitro; for R value (DMSO/fragment) for probe 1 labeling: P55263_K88
T2 construct: isoTOP-ABPP experiments performed in cell lysates (in vitro); endogenous in cells; host or cells: soluble proteome of human cancer cell lines (MDA-MB-231, Ramos, Jurkat)
T2 sequence (P55263 whole entry, the tested form may be a part): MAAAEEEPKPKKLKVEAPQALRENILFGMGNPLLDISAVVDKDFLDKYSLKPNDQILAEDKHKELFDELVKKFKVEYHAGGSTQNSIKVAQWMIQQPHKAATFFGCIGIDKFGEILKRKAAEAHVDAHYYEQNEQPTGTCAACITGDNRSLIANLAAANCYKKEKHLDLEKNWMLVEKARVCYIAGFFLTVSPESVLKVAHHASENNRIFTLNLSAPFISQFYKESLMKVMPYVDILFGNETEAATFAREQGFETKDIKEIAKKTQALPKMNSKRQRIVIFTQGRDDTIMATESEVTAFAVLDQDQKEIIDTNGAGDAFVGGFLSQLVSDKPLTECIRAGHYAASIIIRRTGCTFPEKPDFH
Protocol: as §1, §2, §3, §4

[2] = biological target: T3, ISOC2 Isochorismatase domain-containing protein 2, mitochondrial (Homo sapiens, UniProt Q96AB3); design: key to isoTOP-ABPP reactivity ratio at lysine Q96AB3_K178: R = MS1 peak area ratio, DMSO (heavy) / compound-treated (light); capped at 20; conditions: 50 uM, 231 sol, in vitro; for R value (DMSO/fragment) for probe 1 labeling: Q96AB3_K178
T3 construct: isoTOP-ABPP experiments performed in cell lysates (in vitro); endogenous in cells; host or cells: soluble proteome of human cancer cell lines (MDA-MB-231; Ramos and Jurkat also prepared)
T3 sequence (Q96AB3 1-205): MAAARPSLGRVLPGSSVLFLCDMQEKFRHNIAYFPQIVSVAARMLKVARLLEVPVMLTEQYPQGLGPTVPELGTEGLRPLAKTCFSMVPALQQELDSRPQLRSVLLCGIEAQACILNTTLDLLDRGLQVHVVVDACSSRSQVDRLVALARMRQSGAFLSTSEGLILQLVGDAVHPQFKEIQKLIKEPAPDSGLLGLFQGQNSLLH
Protocol: as §1, §2, §3, §4

[3] = biological target: T4, SRP54 Signal recognition particle 54 kDa protein (Homo sapiens, UniProt P61011); design: key to isoTOP-ABPP reactivity ratio at lysine P61011_K81: R = MS1 peak area ratio, DMSO (heavy) / compound-treated (light); capped at 20; conditions: 50 uM, 231 sol, in vitro; for R value (DMSO/fragment) for probe 1 labeling: P61011_K81
T4 construct: isoTOP-ABPP experiments performed in cell lysates (in vitro); endogenous in cells; host or cells: soluble proteome of human cancer cell lines (MDA-MB-231, Ramos, Jurkat)
T4 sequence (P61011 whole entry, the tested form may be a part): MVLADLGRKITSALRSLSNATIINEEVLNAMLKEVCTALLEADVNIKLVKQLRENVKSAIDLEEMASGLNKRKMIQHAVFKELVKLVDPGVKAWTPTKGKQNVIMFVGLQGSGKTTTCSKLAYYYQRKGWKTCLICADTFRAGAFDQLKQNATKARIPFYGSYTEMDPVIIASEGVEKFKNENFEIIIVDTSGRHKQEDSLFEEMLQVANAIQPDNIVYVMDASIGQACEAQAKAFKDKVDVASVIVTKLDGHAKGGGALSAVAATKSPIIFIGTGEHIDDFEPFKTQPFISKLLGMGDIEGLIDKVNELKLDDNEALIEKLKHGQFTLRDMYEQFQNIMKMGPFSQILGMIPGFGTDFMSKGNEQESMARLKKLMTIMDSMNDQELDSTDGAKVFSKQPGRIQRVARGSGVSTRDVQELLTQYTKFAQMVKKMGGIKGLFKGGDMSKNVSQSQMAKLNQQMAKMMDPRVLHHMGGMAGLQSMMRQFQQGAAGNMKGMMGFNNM
Protocol: as §1, §2, §3, §4

Row | SMILES | R value (DMSO/fragment) for probe 1 labeling [1] | R value (DMSO/fragment) for probe 1 labeling (ADK Adenosine kinase) | R value (DMSO/fragment) for probe 1 labeling [2] | R value (DMSO/fragment) for probe 1 labeling [3] | isoTOP-ABPP reactivity ratio at lysine P51580_K32 [1] | isoTOP-ABPP reactivity ratio at lysine P55263_K88 (ADK Adenosine kinase) | isoTOP-ABPP reactivity ratio at lysine P61011_K81 [3] | isoTOP-ABPP reactivity ratio at lysine Q96AB3_K178 [2]
1 | O=C(CCc1cn(-c2ccccc2)nc1-c1ccccc1)Oc1c(F)c(F)c(F)c(F)c1F [fragment 19, Pentafluorophenyl 3-(1,3-diphenyl-1H-pyrazol-4-yl)propanoate] | 1.3 | 0.8 | 1.2 |  |  |  |  | 
2 | O=C(Oc1c(F)c(F)c(F)c(F)c1F)C(c1ccccc1)c1ccccc1 [fragment 20, Pentafluorophenyl 2,2-diphenylacetate] | 0.9 | 0.8 | 0.9 | 1.0 |  |  |  | 
3 | O=C(Oc1c(F)c(F)c(F)c(F)c1F)c1cc(C(F)(F)F)cc(C(F)(F)F)c1 [fragment 21, Pentafluorophenyl 3,5-bis(trifluoromethyl)benzoate] | 4.9 | 0.8 | 1.0 | 0.7 |  |  |  | 
4 | Cn1cc(CC(=O)Oc2c(F)c(F)c(F)c(F)c2F)c2ccccc21 [fragment 22, Pentafluorophenyl 2-(1-methyl-1H-indol-3-yl)acetate] | 1.3 | 1.0 | 1.0 | 0.9 |  |  |  | 
5 | COc1cc(CCC(=O)Oc2c(F)c(F)c(F)c(F)c2F)cc(OC)c1OC [fragment 23, Pentafluorophenyl 3-(3,4,5-trimethoxyphenyl)propanoate] | 6.4 | 0.7 | 1.2 |  |  |  |  | 

Other lines, results leading:

Row | R value (DMSO/fragment) for probe 1 labeling [1] | R value (DMSO/fragment) for probe 1 labeling (ADK Adenosine kinase) | R value (DMSO/fragment) for probe 1 labeling [2] | R value (DMSO/fragment) for probe 1 labeling [3] | isoTOP-ABPP reactivity ratio at lysine P51580_K32 [1] | isoTOP-ABPP reactivity ratio at lysine P55263_K88 (ADK Adenosine kinase) | isoTOP-ABPP reactivity ratio at lysine P61011_K81 [3] | isoTOP-ABPP reactivity ratio at lysine Q96AB3_K178 [2] | SMILES
6 |  |  |  |  | 1.0 | 1.0 |  |  | O=C(Oc1c(F)c(F)c(F)c(F)c1F)C1CCN(C(=O)OCc2ccccc2)CC1 [fragment 24, 1-Benzyl 4-(pentafluorophenyl) piperidine-1,4-dicarboxylate]
7 |  |  |  |  | 2.9 | 0.8 | 0.8 | 1.4 | O=C(Oc1c(F)c(F)c(F)c(F)c1F)c1ccc2ccccc2n1 [fragment 25, Pentafluorophenyl quinoline-2-carboxylate]
8 |  |  |  |  | 1.0 | 0.9 | 1.0 |  | O=C(CCc1coc2cc(F)ccc2c1=O)Oc1c(F)c(F)c(F)c(F)c1F [fragment 26, Pentafluorophenyl 3-(7-fluoro-4-oxo-4H-chromen-3-yl)propanoate]
9 |  |  |  |  | 1.3 | 0.8 |  | 1.3 | O=C(CN1C(=O)c2ccccc2C1=O)Oc1c(F)c(F)c(F)c(F)c1F [fragment 27, Pentafluorophenyl 2-(1,3-dioxoisoindolin-2-yl)acetate]
